Source: patent publication US12642270B2, “Substituted thiophene carboxamides, thiophene carboxylic acids and derivatives thereof” (Bayer Aktiengesellschaft, priority 2019, dated 2026)

Test: Log P by HPLC on reversed phase columns (EEC directive 79/831 Annex V.A8)
Type: physicochemical
Summary of the method: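 Reversed-phase HPLC per EEC 79/831 Annex V.A8, LC-UV with 10→95% acetonitrile linear gradient; eluent [a] 0.1% formic acid (acidic), [b] 0.001 M ammonium acetate (neutral), [c] 0.1% phosphoric acid (acidic). Calibrated with C3–C16 straight-chain alkan-2-ones, linear interpolation of retention times; multiple values joined by "+".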

[1] = method [a], compounds of formula (I), Table 1.1
[2] = LogP method [a], compounds of formula (I), Table 1.1
[3] = method marker [a] given with each value, Table 1.1, compounds of formula (I)
[4] = method [a]: LC-UV, acidic range, 0.1% formic acid in water and acetonitrile

CCOC(=O)C(Cc1ccc(O)cc1)NC(=O)c1sc(Cl)c(Br)c1C (centres unmarked) [1.0126]
LogP [1]: 3.33^[a]

CCOC(=O)C(Cc1ccccc1)NC(=O)c1sc(Cl)c(Cl)c1C(F)F (centres unmarked) [1.0420]
LogP [2]: 4.33^[a]

COC(=O)C(Cc1c[nH]cn1)NC(=O)c1sc(Br)c(Br)c1F (centres unmarked) [1.0134]
LogP (method [a]): 1.39^[a]

COC(=O)CNC(=O)c1sc(Cl)c(C#N)c1Cl [1.0392]
LogP (method marked [a]): 2.16^[a]

CCCCOC(=O)CNC(=O)c1sc(C#N)c(Br)c1C [1.0972]
LogP [3]: 3.23^[a]

Cc1c(C(=O)N[C@H]2CCOC2=O)sc(Cl)c1Br [I.0762]
LogP [4]: 2.45^[a]

CCOC(=O)C1(NC(=O)c2sc(F)c(Br)c2C)CC1 [1.0318]
LogP (method marked [a]): 2.83^[a]

COC(=O)C(NC(=O)c1sc(Cl)c(Br)c1F)C1CC1 (centres unmarked) [1.0650]
LogP (method [a]): 3.41^[a]

Cc1c(C(=O)N[C@H]2CCOC2=O)sc(Br)c1Cl [I.0763]
LogP [4]: 2.42^[a]

O=C(N[C@H]1CCOC1=O)c1sc(Cl)c(Cl)c1Br [I.0931]
LogP [4]: 2.59^[a]

COC(=O)[C@H](Cc1ccccc1)NC(=O)[C@H](CC(=O)O)NC(=O)c1sc(Br)c(Br)c1F [I.0338]
LogP [4]: 2.98^[a]

CCOC(=O)C(CCSC)NC(=O)c1sc(Cl)c(C#N)c1Cl (centres unmarked) [1.0397]
LogP (method marked [a]): 3.52^[a]

N#CCNC(=O)c1sc(Br)c(Br)c1Cl [1.0850]
LogP (method [a]): 2.67^[a]

O=C1CC(NC(=O)c2cc(Br)c(Cl)s2)CCN1 (centres unmarked) [I.0223]
LogP [4]: 1.80^[a]

C=CCOC(=O)CNC(=O)c1sc(C#N)c(Br)c1C [1.0994]
LogP [3]: 2.65^[a]

CCOC(=O)C(CCSC)NC(=O)c1sc(Br)c(C#N)c1Br (centres unmarked) [1.0411]
LogP [2]: 3.55^[a]

NC(=S)C1(NC(=O)c2sc(Br)c(Br)c2Cl)CC1 [1.0919]
LogP (method [a]): 2.80^[a]

COC(=O)c1sc(F)c(Br)c1Br [II.086]
LogP [4]: 3.56^[a]

CCOC(=O)C(NC(=O)c1sc(Br)c(Br)c1F)C(F)(F)F (racemic) [1.0952]
LogP [3]: 4.08^[a]

CCOC(=O)CCNC(=O)c1sc(C#N)c(Br)c1C [1.0025]
LogP [1]: 2.52^[a]

CCOC(=O)C1(NC(=O)c2sc(Br)c(Br)c2Cl)CCC1 [1.0144]
LogP (method [a]): 4.27^[a]

COC(=O)C(NC(=O)c1sc(Cl)c(Cl)c1Br)c1cccs1 (racemic) [1.0947]
LogP [3]: 4.26^[a]

O=C1CC(NC(=O)c2cc(Br)c(Cl)s2)CN1 (centres unmarked) [I.0225]
LogP [4]: 1.73^[a]

COC(=O)C1(NC(=O)c2sc(Cl)c(Br)c2C)CSC1 [1.0035]
LogP [1]: 3.29^[a]

COC(=O)CNC(=O)c1cc(C#N)c(Br)s1 [1.0399]
LogP (method marked [a]): 1.79^[a]

O=C(CNC(=O)c1sc(Br)c(Br)c1F)OC1CCOC1 (centres unmarked) [1.0678]
LogP (method marked [a]): 2.53^[a]

O=C(O)CNC(=S)c1sc(Br)c(Br)c1Cl [1.0861]
LogP (method [a]): 3.08^[a]

CCOC(=O)C(CCSC)NC(=O)c1sc(Br)c(Br)c1Cl (centres unmarked) [1.0148]
LogP (method [a]): 4.46^[a]

CCOC(=O)C(C)(C)NC(=O)c1sc(Cl)c(Cl)c1Br [1.1062]
LogP [3]: 4.24^[a]

CCOC(=O)CNC(=O)c1sc(C#N)c(Cl)c1Br [1.0664]
LogP (method marked [a]): 2.64^[a]

COC(=O)CNC(=O)c1sc(Br)c(Br)c1Cl [1.0492]
LogP [2]: 2.92^[a]

CCOC(=O)C(NC(=O)c1sc(C#N)c(Br)c1C)C(C)C (racemic) [1.0027]
LogP [1]: 3.52^[a]

CCOC(=O)C(NC(=O)c1sc(Br)c(Cl)c1C)C(=O)OCC [1.0276]
LogP (method marked [a]): 3.84^[a]

COC(=O)C1(NC(=O)c2sc(Br)c(C#N)c2Cl)CCC1 [1.0674]
LogP (method marked [a]): 2.89^[a]

CCOC(=O)CN(OC)C(=O)c1sc(Br)c(Br)c1Cl [1.0804]
LogP (method [a]): 3.67^[a]

COC(=O)C(NC(=O)c1cc(C#N)c(Br)s1)C1CC1 (centres unmarked) [1.0402]
LogP [2]: 2.50^[a]

CCOC(=O)CNC(=S)c1sc(C#N)c(Br)c1C [1.0877]
LogP (method [a]): 3.30^[a]

COC(=O)C(C)(C)NC(=O)c1sc(Br)c(Br)c1C(F)F [1.1061]
LogP [3]: 3.21^[a]

CCOC(=O)C1(NC(=O)c2sc(F)c(Cl)c2C)CC1 [1.0298]
LogP (method marked [a]): 2.77^[a]

O=C(O)C1(NC(=S)c2sc(Br)c(Br)c2F)CC1 [1.0329]
LogP (method marked [a]): 2.95^[a]

COC(=O)C(NC(=O)c1sc(Cl)c(C#N)c1Cl)C1CC1 (centres unmarked) [1.0395]
LogP (method marked [a]): 2.97^[a]

COC(=O)C1(NC(=O)c2sc(C#N)c(Cl)c2C)CC1 [1.0283]
LogP (method marked [a]): 2.21^[a]

CCOC(=O)C1(NC(=O)c2sc(F)c(Br)c2Br)CC1 [1.0706]
LogP (method marked [a]): 3.17^[a]

CCOC(=O)C(C)NC(=O)c1sc(Br)c(Br)c1C(F)F (centres unmarked) [1.0357]
LogP (method marked [a]): 3.35^[a]

COC(=O)C1(NC(=O)c2sc(Br)c(Br)c2F)CCOC1 (racemic) [1.0009]
LogP [1]: 2.76^[a]

COC(=O)C(CCSC)NC(=O)c1sc(Cl)c(Cl)c1C(F)F (centres unmarked) [1.1069]
LogP [3]: 3.52^[a]

COC(=O)C(CCSC)NC(=O)c1sc(C#N)c(Br)c1Br (centres unmarked) [1.0733]
LogP (method marked [a]): 3.23^[a]

COC(=O)[C@H](CCSC)NC(=O)c1sc(Br)c(Br)c1F [1.0159]
LogP (method [a]): 3.62^[a]

COC(=O)C(C)(C)NC(=O)c1sc(Cl)c(C#N)c1Br [1.0657]
LogP (method [a]): 2.83^[a]

CC(C)(C)OC(=O)C(NC(=O)c1sc(Cl)c(Cl)c1Br)C1CC1 (centres unmarked) [1.0902]
LogP (method [a]): 5.41^[a]

CCOC(=O)C1(NC(=O)c2sc(Br)c(Cl)c2C)CCC1 [1.0075]
LogP [1]: 3.67^[a]

CCOC(=O)C1(NC(=O)c2sc(Br)c(Cl)c2Br)CC1 [1.0782]
LogP (method marked [a]): 3.56^[a]

C#CCOC(=O)C1(NC(=O)c2sc(C#N)c(Br)c2C)CC1 [1.0963]
LogP [3]: 2.61^[a]

COC(=O)C(C)(C)NC(=O)c1sc(C(F)F)c(Br)c1Br [1.0513]
LogP [2]: 3.32^[a]

CCOC(=O)C(C)(C)NC(=O)c1sc(Cl)c(Cl)c1Br [I.1062, ethyl N-[(3-bromo-4,5-dichloro-2-thienyl)carbonyl]-2-methylalaninate]
chromatographic logP (reversed phase HPLC columns, value in preparation example, method not marked): 4.24

CC(C)C(C#N)NC(=O)c1sc(Br)c(Br)c1F (centres unmarked) [1.1010]
LogP [3]: 3.54^[a]

Cc1c(C(=O)NC2(C#N)CC2)sc(Cl)c1Br [1.0106]
LogP [1]: 2.78^[a]

COC(=O)C1(NC(=O)c2cc(Cl)c(Br)s2)CC1 [1.0162]
LogP (method [a]): 2.48^[a]

CCOC(=O)C(CC(C)C)NC(=O)c1sc(C#N)c(Br)c1C (centres unmarked) [1.0245]
LogP (method [a]): 3.85^[a]

CC(C)COC(=O)CNC(=O)c1sc(Br)c(Br)c1F [1.1000]
LogP [3]: 3.88^[a]

CCOC(=O)c1sc(C#N)c(Cl)c1Br [II.092]
LogP [4]: 3.56^[a]

CCOC(=O)CNC(=O)c1sc(Br)c(Br)c1C(F)F [1.0355]
LogP (method marked [a]): 3.01^[a]

N#Cc1sc(C(=O)O)cc1Cl [II.034]
LogP [4]: 1.33^[a]

CCOC(=O)C1(NC(=O)c2sc(Cl)c(Br)c2C)CN(C(=O)OC(C)(C)C)C1 [1.0271]
LogP (method marked [a]): 4.23^[a]

CCOC(=O)C(CSC)NC(=O)c1sc(Br)c(Cl)c1C (centres unmarked) [1.0756]
LogP (method marked [a]): 3.94^[a]

CCOC(=O)CNC(=O)c1cc(F)c(Br)s1 [1.0467]
LogP [2]: 2.28^[a]

CCOC(=O)C1(NC(=O)c2sc(Br)c(Br)c2C(F)F)CCC1 [1.0359]
LogP (method marked [a]): 3.67^[a]

CCOC(=O)C1(NC(=O)c2sc(I)c(Br)c2C)CC1 [1.0098]
LogP [1]: 3.19^[a]

CCOC(=O)C1(NC(=O)c2cc(Br)c(Cl)s2)CC1 [1.0458]
LogP [2]: 3.43^[a]

CCOC(=O)C(Cc1ccccc1)NC(=O)c1sc(F)c(Br)c1Br (centres unmarked) [1.0711]
LogP (method marked [a]): 4.67^[a]

CCOC(=O)C(CC(F)(F)F)NC(=O)c1sc(Br)c(Br)c1F (centres unmarked) [1.0050]
LogP [1]: 3.88^[a]

COC(=O)CNC(=O)c1sc(Cl)c(Cl)c1C#N [1.0681]
LogP (method marked [a]): 2.17^[a]

CCOC(=O)CNC(=O)c1sc(Cl)c(C#N)c1Br [1.0653]
LogP (method [a]): 2.58^[a]

CCOC(=O)CC[C@H](NC(=O)c1sc(Cl)c(Cl)c1Br)C(=O)OCC [1.0562]
LogP (method [a]): 4.25^[a]

C=CCOC(=O)CNC(=O)c1sc(Br)c(Br)c1Cl [1.0961]
LogP [3]: 3.50^[a]

O=C(O)c1sc(Br)c(Br)c1C(F)F [II.006]
LogP [4]: 2.46^[a]

COC(=O)C(CCSC)NC(=O)c1sc(C#N)c(Br)c1C (centres unmarked) [1.0751]
LogP (method marked [a]): 3.06^[a]

COC(=O)CNC(=O)c1sc(Cl)c(Br)c1Cl [1.0177]
LogP (method [a]): 2.85^[a]

N#Cc1c(C(=O)O)sc(Br)c1Br [II.104]
LogP [4]: 1.71^[a]

CCCOC(=O)C1(NC(=O)c2sc(Cl)c(Br)c2C#N)CC1 [1.0631]
LogP (method [a]): 3.06^[a]

Cc1c(C(=O)NC2CCSC2=O)sc(Cl)c1Br (centres unmarked) [I.0023]
LogP (method [a]: LC-UV, acidic range, 0.1% formic acid in water and acetonitrile, listed as 1.0023): 2.99^[a]

CCOC(=O)CNC(=O)c1cc(Br)c(F)s1 [1.0311]
LogP (method marked [a]): 2.33^[a]

COC(=O)C(C)(Cc1ccccc1)NC(=O)c1sc(Cl)c(Cl)c1Br (racemic) [1.0948]
LogP [3]: 5.15^[a]

O=C(NC1(C(=O)OC2CCC2)CC1)c1cc(Br)c(Cl)s1 [1.0607]
LogP (method [a]): 3.46^[a]

CCOC(=O)C(Cc1ccccc1)NC(=O)c1cc(C#N)c(Cl)s1 (centres unmarked) [1.0384]
LogP (method marked [a]): 3.47^[a]

COC(=O)[C@@H](CC(N)=O)NC(=O)c1sc(Br)c(Br)c1F [1.0161]
LogP (method [a]): 1.98^[a]

COC(=O)C1(NC(=O)c2sc(Br)c(C(F)F)c2Br)CCC1 [1.0505]
LogP [2]: 3.25^[a]

CC(C)C(NC(=O)c1sc(Br)c(Br)c1F)C(=O)O (centres unmarked) [1.0234]
LogP (method [a]): 2.97^[a]

COC(=O)C1(NC(=O)c2sc(F)c(Br)c2Br)CCC1 [1.0712]
LogP (method marked [a]): 3.41^[a]

O=C(O)c1cc(Br)c(C(F)(F)F)s1 [II.081]
LogP [4]: 2.46^[a]

CCOC(=O)C(Cc1ccccc1)NC(=O)c1cc(F)c(Br)s1 (racemic) [1.0030]
LogP [1]: 3.69^[a]

C=CCOC(=O)C1(NC(=O)c2sc(C#N)c(Cl)c2Cl)CC1 [1.0912]
LogP (method [a]): 3.00^[a]

CCOC(=O)CNC(=O)c1sc(Br)c(Cl)c1F [1.0423]
LogP [2]: 2.92^[a]

COC(=O)C1(NC(=O)c2sc(Br)c(Br)c2Cl)CCC1 [1.0849]
LogP (method [a]): 3.75^[a]

CCNC(=O)SCC(NC(=O)c1sc(Br)c(Br)c1Cl)C(=O)OC (centres unmarked) [1.0536]
LogP (method [a]): 3.38^[a]
